Laboratory results: patent US10414811B2, “Protease-resistant lipidated GLP-1 analogs” (MEDIMMUNE LIMITED, priority 2015, dated 2019)
Read-outs that look alike come from different tables or passages of the source. Numbered stars: 1 amine (or outer) side, 2 acyl side, 3 side chain; on linkers, the order of the positions; unused ones are H or OH. Square brackets hold non-standard residues; d marks the D form. Side chains are listed from the residue outwards. Peptide text beside a SMILES is read from it. * marks the point of attachment. C18 diacid = O=C(O)CCCCCCCCCCCCCCCCC(=O)*; C16 diacid = O=C(O)CCCCCCCCCCCCCCC(=O)*; γGlu = O=C(O)[C@H](CCC(=O)[*:2])N[*:1]; Palmitoyl = CCCCCCCCCCCCCCCC(=O)*; αMeF = C[C@](N)(Cc1ccccc1)C(=O)O; αMeK = C[C@](N)(CCCCN)C(=O)O; Lauroyl = CCCCCCCCCCCC(=O)*; αMeS = C[C@](N)(CO)C(=O)O; AEEA = NCCOCCOCC(=O)O; Aib = CC(C)(N)C(=O)O

How the values were obtained:
Assay type in all cases: cell-based
[1] = biological target: T1, human glucose-dependent insulinotropic peptide receptor (GIPR) (Homo sapiens, UniProt P48546); test: cAMP assay, human GIPR cells
T1 construct: expressed in transfected cells
T1 sequence (P48546 22-466): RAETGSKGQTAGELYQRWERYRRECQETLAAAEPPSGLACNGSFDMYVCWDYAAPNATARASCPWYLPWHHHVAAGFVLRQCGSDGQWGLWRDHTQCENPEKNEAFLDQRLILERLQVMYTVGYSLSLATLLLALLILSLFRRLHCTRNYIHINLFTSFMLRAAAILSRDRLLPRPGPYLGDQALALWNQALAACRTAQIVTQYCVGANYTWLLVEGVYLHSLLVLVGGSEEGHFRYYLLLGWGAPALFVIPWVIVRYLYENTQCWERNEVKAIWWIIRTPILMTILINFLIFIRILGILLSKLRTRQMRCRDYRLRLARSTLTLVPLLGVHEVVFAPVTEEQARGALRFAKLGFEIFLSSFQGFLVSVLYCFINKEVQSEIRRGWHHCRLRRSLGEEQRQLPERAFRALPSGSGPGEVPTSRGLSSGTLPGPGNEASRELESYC
How it was run: (§1)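 Peptide-stimulated cAMP measured by two-step HTRF after a 30 min room-temperature incubation with receptor-expressing cells (hGLP-1R, hGIPR at 1×10^5 cells/ml; hGCGR at 2×10^5 cells/ml). Duplicate dilutions; EC50 from 4-parameter logistic fit of % Delta F.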

[2] = biological target: T2, human GLP-1 receptor (GLP-1R) (Homo sapiens, UniProt P43220); test: cAMP assay, human GLP-1R cells
T2 construct: expressed in transfected cells
How it was run: as §1

[3] = biological target: T3, human glucagon receptor (GCGR) (Homo sapiens, UniProt P47871); test: cAMP assay, human GCGR cells
T3 construct: expressed in transfected cells
How it was run: as §1

[4] = cAMP assay, first determination (n1), read-out: Primary assay EC50 GIP-R (n1)
[5] = cAMP assay, second determination (n2), read-out: Primary assay EC50 GIP-R (n2)
[6] = cAMP assay, first determination (n1), read-out: Primary assay EC50 GLP-1R n1
[7] = cAMP assay, second determination (n2), read-out: Primary assay EC50 GLP-1R n2
[8] = mean of n1 and n2, read-out: Mean pM GLP-1R
[9] = cAMP assay, first determination (n1), read-out: Primary assay EC50 Gluc-R (n1)
[10] = cAMP assay, second determination (n2), read-out: Primary assay EC50 Gluc-R (n2)

T3 sequence (P47871 26-477): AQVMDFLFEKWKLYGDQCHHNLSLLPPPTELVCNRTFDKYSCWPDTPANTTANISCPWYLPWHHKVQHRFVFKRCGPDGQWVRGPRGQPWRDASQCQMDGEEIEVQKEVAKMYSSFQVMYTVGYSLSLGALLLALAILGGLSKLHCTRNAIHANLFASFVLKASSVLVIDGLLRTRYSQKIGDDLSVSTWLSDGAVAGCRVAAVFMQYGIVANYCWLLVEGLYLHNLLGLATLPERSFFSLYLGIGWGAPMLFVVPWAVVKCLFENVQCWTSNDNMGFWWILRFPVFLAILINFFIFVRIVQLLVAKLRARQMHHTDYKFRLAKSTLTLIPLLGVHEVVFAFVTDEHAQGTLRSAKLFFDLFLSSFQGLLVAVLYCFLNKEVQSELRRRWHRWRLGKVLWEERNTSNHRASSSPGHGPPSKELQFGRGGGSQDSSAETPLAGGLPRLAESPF
T2 sequence (P43220 24-463): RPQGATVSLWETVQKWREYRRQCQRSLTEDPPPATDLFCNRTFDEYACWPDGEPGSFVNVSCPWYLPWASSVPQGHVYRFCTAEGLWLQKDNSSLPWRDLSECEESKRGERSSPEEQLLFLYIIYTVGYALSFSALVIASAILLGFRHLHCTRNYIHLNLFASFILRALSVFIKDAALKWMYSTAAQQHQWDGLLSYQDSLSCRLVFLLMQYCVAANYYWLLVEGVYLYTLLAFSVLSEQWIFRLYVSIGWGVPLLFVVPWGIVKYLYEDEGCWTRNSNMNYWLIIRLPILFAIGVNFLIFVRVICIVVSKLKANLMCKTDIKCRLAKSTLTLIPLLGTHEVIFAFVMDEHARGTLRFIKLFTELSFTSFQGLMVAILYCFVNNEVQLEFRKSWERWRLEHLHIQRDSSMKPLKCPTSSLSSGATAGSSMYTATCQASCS

Compound | EC50 [1, 4] [nM] | EC50 [1, 5] [nM] | EC50 [2, 6] [pM] | EC50 [2, 7] [pM] | EC50 [2, 8] [pM] | EC50 [3, 9] [nM] | EC50 [3, 10] [nM] | EC50 ([1]; bis-lipidated peptides, first replicate, read-out: Primary assay EC50 GIP-R (n1)) [nM] | EC50 ([2]; bis-lipidated peptides, mean of n1 and n2, read-out: Primary assay EC50 Mean pM GLP-1R) [pM] | EC50 ([2]; bis-lipidated peptides, replicate n1, read-out: Primary assay EC50 GLP-1R n1) [pM] | EC50 ([2]; bis-lipidated peptides, replicate n2, read-out: Primary assay EC50 GLP-1R n2) [pM] | EC50 ([3]; bis-lipidated peptides, first replicate, read-out: Primary assay EC50 Gluc-R (n1)) [nM] | EC50 ([1]; tris-lipidated peptides, second replicate, read-out: Primary assay EC50 GIP-R (n2)) [nM] | EC50 ([2]; tris-lipidated peptides, mean of n1 and n2, read-out: Primary assay EC50 Mean pM GLP-1R) [pM] | EC50 ([2]; tris-lipidated peptides, replicate n1, read-out: Primary assay EC50 GLP-1R n1) [pM] | EC50 ([2]; tris-lipidated peptides, replicate n2, read-out: Primary assay EC50 GLP-1R n2) [pM] | EC50 ([3]; tris-lipidated peptides, second replicate, read-out: Primary assay EC50 Gluc-R (n2)) [nM]
CC[C@H](C)[C@H](NC(=O)[C@](C)(Cc1ccccc1)NC(=O)[C@H](CCC(=O)O)NC(=O)[C@](C)(CCCCN)NC(=O)[C@H](C)NC(=O)[C@H](C)NC(=O)[C@H](CCC(=O)O)NC(=O)CNC(=O)[C@H](CCC(=O)O)NC(=O)[C@H](CC(C)C)NC(=O)[C@](C)(Cc1ccccc1)NC(=O)[C@H](CO)NC(=O)[C@](C)(CO)NC(=O)[C@@H](NC(=O)[C@H](CC(=O)O)NC(=O)[C@H](CO)NC(=O)[C@@H](NC(=O)[C@](C)(Cc1ccccc1)NC(=O)[C@H](CO)NC(=O)CNC(=O)[C@H](CCCCNC(=O)COCCOCCNC(=O)COCCOCCNC(=O)CC[C@H](NC(=O)CCCCCCCCCCCCCCCCC(=O)O)C(=O)O)NC(=O)C(C)(C)NC(=O)[C@@H](N)Cc1c[nH]cn1)[C@@H](C)O)C(C)C)C(=O)N[C@@H](C)C(=O)N[C@@](C)(Cc1ccccc1)C(=O)N[C@H](C(=O)N[C@H](C(=O)N[C@@](C)(CCCCN)C(=O)NCC(=O)NCC(N)=O)C(C)C)C(C)C [compound 126] (H-H[Aib]K([AEEA-AEEA-γGlu-C18 diacid])GS[αMeF]TSDV[αMeS]S[αMeF]LEGEAA[αMeK]E[αMeF]IA[αMeF]VV[αMeK]GG-NH2; N-terminus assumed) | ≥ 25 | ≥ 25.4 | ≥ 25000 | ≥ 25400 | ≥ 25400 | ≥ 25 | ≥ 25.4 | – | – | – | – | – | – | – | – | – | –
CC[C@H](C)[C@H](NC(=O)[C@H](Cc1ccccc1)NC(=O)[C@H](CCC(=O)O)NC(=O)[C@](C)(CCCCN)NC(=O)[C@H](C)NC(=O)[C@H](C)NC(=O)[C@H](CCC(=O)O)NC(=O)CNC(=O)[C@H](CCC(=O)O)NC(=O)[C@H](CC(C)C)NC(=O)[C@H](Cc1ccc(O)cc1)NC(=O)[C@H](CO)NC(=O)[C@H](CO)NC(=O)[C@H](CCCCNC(=O)COCCOCCNC(=O)COCCOCCNC(=O)CC[C@H](NC(=O)CCCCCCCCCCCCCCC(=O)O)C(=O)O)NC(=O)[C@H](CC(=O)O)NC(=O)[C@H](CO)NC(=O)[C@@H](NC(=O)[C@](C)(Cc1ccccc1)NC(=O)[C@H](CO)NC(=O)CNC(=O)[C@H](CCC(=O)O)NC(=O)C(C)(C)NC(=O)[C@@H](N)Cc1c[nH]cn1)[C@@H](C)O)C(=O)N[C@@H](C)C(=O)N[C@@H](CCCCNC(=O)COCCOCCNC(=O)COCCOCCNC(=O)CC[C@H](NC(=O)CCCCCCCCCCCCCCC(=O)O)C(=O)O)C(=O)N[C@H](C(=O)N[C@H](C(=O)N[C@@H](CCC(=O)O)C(=O)NCC(=O)NCC(N)=O)C(C)C)C(C)C [compound 260] (H-H[Aib]EGS[αMeF]TSDK([AEEA-AEEA-γGlu-C16 diacid])SSYLEGEAA[αMeK]EFIAK([AEEA-AEEA-γGlu-C16 diacid])VVEGG-NH2; N-terminus assumed) | – | – | – | – | – | – | – | ≥ 21.9 | 388 | 334 | 443 | ≥ 21.9 | – | – | – | – | –
CC(C)C[C@H](NC(=O)[C@](C)(Cc1ccccc1)NC(=O)[C@H](CO)NC(=O)[C@H](CO)NC(=O)[C@@H](NC(=O)[C@H](CC(=O)O)NC(=O)[C@H](CO)NC(=O)[C@@H](NC(=O)[C@](C)(Cc1ccccc1)NC(=O)[C@H](CO)NC(=O)CNC(=O)[C@H](CCC(=O)O)NC(=O)C(C)(C)NC(=O)[C@@H](N)Cc1c[nH]cn1)[C@@H](C)O)C(C)C)C(=O)N[C@@H](CCC(=O)O)C(=O)NCC(=O)N[C@@H](CCC(=O)O)C(=O)N[C@@H](C)C(=O)N[C@@H](C)C(=O)N[C@@](C)(CCCCN)C(=O)N[C@@H](CCC(=O)O)C(=O)N[C@@](C)(Cc1ccccc1)C(=O)N[C@H](C(=O)N[C@@H](C)C(=O)N[C@@](C)(Cc1ccccc1)C(=O)N[C@H](C(=O)N[C@H](C(=O)N[C@@](C)(CCCCN)C(=O)NCC(=O)NCC(N)=O)C(C)C)C(C)C)C(C)C [compound 11] (H-H[Aib]EGS[αMeF]TSDVSS[αMeF]LEGEAA[αMeK]E[αMeF]VA[αMeF]VV[αMeK]GG-NH2) | ≥ 100 | ≥ 100 | 32 | 32 | 32 | ≥ 100 | ≥ 100 | – | – | – | – | – | – | – | – | – | –
CCCCCCCCCCCC(=O)N[C@@H](CCC(=O)NCCOCCOCC(=O)NCCOCCOCC(=O)NCCCC[C@H](NC(=O)CNC(=O)[C@H](CCC(=O)O)NC(=O)[C@H](CCCCNC(=O)COCCOCCNC(=O)COCCOCCNC(=O)CC[C@H](NC(=O)CCCCCCCCCCC)C(=O)O)NC(=O)[C@H](Cc1ccc(O)cc1)NC(=O)[C@H](CO)NC(=O)[C@](C)(CO)NC(=O)[C@@H](NC(=O)[C@H](CC(=O)O)NC(=O)[C@H](CO)NC(=O)[C@@H](NC(=O)[C@](C)(Cc1ccccc1)NC(=O)[C@H](CO)NC(=O)CNC(=O)[C@H](CCC(=O)O)NC(=O)C(C)(C)NC(=O)[C@@H](N)Cc1c[nH]cn1)[C@@H](C)O)C(C)C)C(=O)N[C@@H](C)C(=O)N[C@@H](C)C(=O)N[C@@](C)(CCCCN)C(=O)N[C@@H](CCC(=O)O)C(=O)N[C@@H](Cc1ccccc1)C(=O)N[C@H](C(=O)N[C@@H](CCCCNC(=O)COCCOCCNC(=O)COCCOCCNC(=O)CC[C@H](NC(=O)CCCCCCCCCCC)C(=O)O)C(=O)N[C@@H](Cc1ccccc1)C(=O)N[C@H](C(=O)N[C@H](C(=O)N[C@@H](CCC(=O)O)C(=O)NCC(=O)NCC(N)=O)C(C)C)C(C)C)[C@@H](C)CC)C(=O)O [compound 452] (H-H[Aib]EGS[αMeF]TSDV[αMeS]SYK([AEEA-AEEA-γGlu-Lauroyl])EGK([AEEA-AEEA-γGlu-Lauroyl])AA[αMeK]EFIK([AEEA-AEEA-γGlu-Lauroyl])FVVEGG-NH2; N-terminus assumed) | – | – | – | – | – | – | – | – | – | – | – | – | 19.7 | 80.9 | 85.7 | 76.1 | 19.7
CCCCCCCCCCCCCCCC(=O)N[C@@H](CCC(=O)NCCCC[C@H](NC(=O)[C@H](CC(=O)O)NC(=O)[C@H](CO)NC(=O)[C@@H](NC(=O)[C@](C)(Cc1ccccc1)NC(=O)[C@H](CO)NC(=O)CNC(=O)[C@H](CCC(N)=O)NC(=O)C(C)(C)NC(=O)[C@@H](N)Cc1c[nH]cn1)[C@@H](C)O)C(=O)N[C@@H](CO)C(=O)N[C@@H](CCC(=O)O)C(=O)N[C@@](C)(Cc1ccccc1)C(=O)N[C@@H](CC(C)C)C(=O)N[C@@H](CC(=O)O)C(=O)N[C@@H](CO)C(=O)N[C@@H](CCC(=O)O)C(=O)N[C@@H](CCCNC(=N)N)C(=O)N[C@@H](C)C(=O)N[C@@H](CCCNC(=N)N)C(=O)N[C@@H](CC(=O)O)C(=O)N[C@@](C)(Cc1ccccc1)C(=O)N[C@H](C(=O)N[C@@H](C)C(=O)N[C@@](C)(Cc1ccccc1)C(=O)N[C@@H](CC(C)C)C(=O)N[C@@H](CCC(=O)O)C(=O)N[C@@H](C)C(=O)NCC(=O)NCC(N)=O)C(C)C)C(=O)O [compound 13] (H-H[Aib]QGS[αMeF]TSDK([γGlu-Palmitoyl])SE[αMeF]LDSERARD[αMeF]VA[αMeF]LEAGG-NH2) | 0.69 | 0.63 | 22 | 9.6 | 16 | 7.6 | 4.1 | – | – | – | – | – | – | – | – | – | –
CSCC[C@H](NC(=O)[C@H](CC(C)C)NC(=O)[C@](C)(Cc1ccccc1)NC(=O)[C@H](CCC(N)=O)NC(=O)[C@@H](NC(=O)[C@](C)(Cc1ccccc1)NC(=O)[C@H](CC(=O)O)NC(=O)[C@H](CCC(N)=O)NC(=O)[C@H](C)NC(=O)[C@H](CCCNC(=N)N)NC(=O)[C@H](CCCNC(=N)N)NC(=O)[C@H](CO)NC(=O)[C@H](CC(=O)O)NC(=O)[C@H](CC(C)C)NC(=O)[C@](C)(Cc1ccccc1)NC(=O)[C@H](CCCCN)NC(=O)[C@H](CO)NC(=O)[C@](C)(Cc1ccccc1)NC(=O)[C@H](CC(=O)O)NC(=O)[C@H](CO)NC(=O)[C@@H](NC(=O)[C@](C)(Cc1ccccc1)NC(=O)[C@H](CO)NC(=O)CNC(=O)[C@H](CCC(N)=O)NC(=O)C(C)(C)NC(=O)[C@@H](N)Cc1c[nH]cn1)[C@@H](C)O)C(C)C)C(=O)N[C@@H](CC(N)=O)C(=O)N[C@H](C(N)=O)[C@@H](C)O [compound 14] (H-H[Aib]QGS[αMeF]TSD[αMeF]SK[αMeF]LDSRRAQD[αMeF]VQ[αMeF]LMNT-NH2) | 15 | 19 | 3100 | 1800 | 2440 | 3 | 1.1 | – | – | – | – | – | – | – | – | – | –
